The NIST ThermoML archive (doi:10.1016/j.jct.2012.11.032)
Numbers after ± are expanded uncertainties.

Assay: xn = mol fraction of the nth substance listed
Conditions: 101 kPa, Liquid; for speed of sound: Sing-around technique in a fixed-path interferometer; for mass density: Vibrating tube method

## CCCCCCCC[n+]1ccn(C)c1.[Cl-] [1-methyl-3-octylimidazolium chloride] + O
308 K, x1 = 0.003111
  speed of sound: 1542.3 ± 1.2 m/s
  mass density: 994.711 ± 0.1 kg/m3
308 K, x1 = 0.003716
  speed of sound: 1545.9 ± 1.2 m/s
  mass density: 994.828 ± 0.1 kg/m3
308 K, x1 = 0.003899
  speed of sound: 1546.9 ± 1.2 m/s
  mass density: 994.859 ± 0.1 kg/m3
308 K, x1 = 0.004079
  speed of sound: 1548 ± 1.2 m/s
  mass density: 994.891 ± 0.1 kg/m3
308 K, x1 = 0.004181
  speed of sound: 1548.6 ± 1.2 m/s
  mass density: 994.908 ± 0.1 kg/m3
308 K, x1 = 0.004462
  speed of sound: 1550.1 ± 1.2 m/s
  mass density: 994.953 ± 0.1 kg/m3
308 K, x1 = 0.004601
  speed of sound: 1550.8 ± 1.2 m/s
  mass density: 994.974 ± 0.1 kg/m3
308 K, x1 = 0.004981
  speed of sound: 1552.6 ± 1.2 m/s
  mass density: 995.028 ± 0.1 kg/m3
308 K, x1 = 0.005198
  speed of sound: 1553.5 ± 1.2 m/s
  mass density: 995.061 ± 0.1 kg/m3
308 K, x1 = 0.005607
  speed of sound: 1555.3 ± 1.2 m/s
  mass density: 995.112 ± 0.1 kg/m3
308 K, x1 = 0.005782
  speed of sound: 1555.9 ± 1.2 m/s
  mass density: 995.128 ± 0.1 kg/m3
308 K, x1 = 0.000276
  mass density: 994.15 ± 0.1 kg/m3
308 K, x1 = 0.000495
  mass density: 994.182 ± 0.1 kg/m3
308 K, x1 = 0.000781
  mass density: 994.262 ± 0.1 kg/m3
308 K, x1 = 0.00102
  mass density: 994.297 ± 0.1 kg/m3
308 K, x1 = 0.0013
  mass density: 994.364 ± 0.1 kg/m3
308 K, x1 = 0.001503
  mass density: 994.399 ± 0.1 kg/m3
308 K, x1 = 0.001892
  mass density: 994.479 ± 0.1 kg/m3
308 K, x1 = 0.002073
  mass density: 994.514 ± 0.1 kg/m3
308 K, x1 = 0.002376
  mass density: 994.575 ± 0.1 kg/m3
308 K, x1 = 0.00261
  mass density: 994.623 ± 0.1 kg/m3
308 K, x1 = 0.002774
  mass density: 994.653 ± 0.1 kg/m3
313 K, x1 = 0.000276
  speed of sound: 1531.1 ± 1.2 m/s
  mass density: 992.324 ± 0.1 kg/m3
313 K, x1 = 0.000495
  speed of sound: 1532.6 ± 1.2 m/s
  mass density: 992.347 ± 0.1 kg/m3
313 K, x1 = 0.000781
  speed of sound: 1534.6 ± 1.2 m/s
  mass density: 992.417 ± 0.1 kg/m3
313 K, x1 = 0.00102
  speed of sound: 1536.2 ± 1.2 m/s
  mass density: 992.447 ± 0.1 kg/m3
313 K, x1 = 0.0013
  speed of sound: 1538.1 ± 1.2 m/s
  mass density: 992.496 ± 0.1 kg/m3
313 K, x1 = 0.001503
  speed of sound: 1539.5 ± 1.2 m/s
  mass density: 992.524 ± 0.1 kg/m3
313 K, x1 = 0.001892
  speed of sound: 1542 ± 1.2 m/s
  mass density: 992.591 ± 0.1 kg/m3
313 K, x1 = 0.002073
  speed of sound: 1543.2 ± 1.2 m/s
  mass density: 992.619 ± 0.1 kg/m3
313 K, x1 = 0.002376
  speed of sound: 1545 ± 1.2 m/s
  mass density: 992.664 ± 0.1 kg/m3
313 K, x1 = 0.00261
  speed of sound: 1546.6 ± 1.2 m/s
  mass density: 992.706 ± 0.1 kg/m3
313 K, x1 = 0.002774
  speed of sound: 1547.5 ± 1.2 m/s
  mass density: 992.728 ± 0.1 kg/m3
313 K, x1 = 0.003111
  speed of sound: 1549.5 ± 1.2 m/s
  mass density: 992.774 ± 0.11 kg/m3
313 K, x1 = 0.003716
  speed of sound: 1552.7 ± 1.2 m/s
  mass density: 992.866 ± 0.11 kg/m3
313 K, x1 = 0.003899
  speed of sound: 1553.7 ± 1.2 m/s
  mass density: 992.89 ± 0.11 kg/m3
313 K, x1 = 0.004079
  speed of sound: 1554.6 ± 1.2 m/s
  mass density: 992.912 ± 0.11 kg/m3
313 K, x1 = 0.004181
  speed of sound: 1555.1 ± 1.2 m/s
  mass density: 992.929 ± 0.11 kg/m3
313 K, x1 = 0.004462
  speed of sound: 1556.5 ± 1.2 m/s
  mass density: 992.963 ± 0.11 kg/m3
313 K, x1 = 0.004601
  speed of sound: 1557.1 ± 1.2 m/s
  mass density: 992.978 ± 0.11 kg/m3
313 K, x1 = 0.004981
  speed of sound: 1558.7 ± 1.2 m/s
  mass density: 993.015 ± 0.11 kg/m3
313 K, x1 = 0.005198
  speed of sound: 1559.5 ± 1.2 m/s
  mass density: 993.04 ± 0.11 kg/m3
313 K, x1 = 0.005607
  speed of sound: 1561 ± 1.2 m/s
  mass density: 993.076 ± 0.11 kg/m3
313 K, x1 = 0.005782
  speed of sound: 1561.6 ± 1.2 m/s
  mass density: 993.084 ± 0.11 kg/m3
